Source: US20260166029A1, “METHODS AND SYSTEMS FOR TREATING DISEASE USING AN ATR/CHK1 SIGNALING PATHWAY INHIBITOR” (Acrivon Therapeutics, Inc., priority 2022, published 2026)
Like-named read-outs stand apart in the source and are kept apart here.

Tests used:
HCT116 [1] = assay: Cell viability, sensitivity to prexasertib (Example 1); design: species or system human; conditions: HCT116 cell line; based on EC50 from prior publications
Description: (§1) Predicted response to prexasertib was compared to experimentally measured sensitivity to prexasertib. […] EC50 values of less than or equal to 1 μM were considered to be actual responders, while values of greater than 1 μM were considered to be actual non-responders.

PANC1 = assay: as above; design: species or system human; conditions: PANC1 cell line; based on EC50 from prior publications
Description: as §1

OVCAR3 cells = assay: Cell Titer Glo 2.0 viability after biomarker siRNA knockdown (Example 6); assay type: cell-based; conditions: Homo sapiens, OVCAR-3, 72 h, read-out: absolute EC50
Description: OVCAR3 cells cultured in RPMI medium with 20% FBS were transfected with siRNA (Silencer Select, cat #4390824, ThermoFisher) targeting TRIM28 (KAP1) CCNE1, CCNA2, or CHEK2, as compared with a negative control siRNA (cat #4390843, ThermoFisher) using RNAiMAX transfection reagent (ThermoFisher). Twenty-four hours after the transfection, cells were reseeded into 384-well plates and left to adhere for 24 hours before being treated with increasing doses of prexasertib. Relative cell viability against a DMSO control was assessed 72 hours after drug treatment using Cell Titer Glo 2.0 (Promega) and a SpectraMax microplate reader. Error bars represent standard deviations from quadruplicate samples.

ST1827 ovarian PDX tumor = assay: Response to prexasertib treatment in ovarian PDX tumor model (Example 3); assay type: in vivo; design: key to Response type: CR = complete regression; PR = partial regression; S = stasis; G = growth
From the text: (§2) To evaluate whether the provided Response-Predictive Signature can predict response to prexasertib treatment, the predicted response for each PDX model was compared to an experimentally determined response to prexasertib treatment for the same PDX model. The experimentally measured response was quantified as follows: if a treated tumor reduced in size/volume, then the percent regression compared to an initial volume of a treated tumor was provided, if a treated tumor increased in size/volume, then a percent ratio of the treated tumor's growth was divided by control tumor (i.e., untreated tumor) growth (d[T/C]). Negative values for regression percentage indicate response to treatment with prexasertib, while positive values indicate continued growth and non-response to prexasertib treatment. The experimentally measured response was further categorized as complete regression (near −100% regression), partial regression (−50% to −100% regression), stasis (<20% median tumor growth to −50% regression), and growth (>20% median tumor growth).

ST182B ovarian PDX tumor = assay: as above; assay type: in vivo; design: key to Response type: CR = complete regression; PR = partial regression; S = stasis; G = growth
From the text: as §2

ST2067 ovarian PDX tumor = assay: as above; assay type: in vivo; design: key to Response type: CR = complete regression; PR = partial regression; S = stasis; G = growth
From the text: as §2

ST206B ovarian PDX tumor = assay: as above; assay type: in vivo; design: key to Response type: CR = complete regression; PR = partial regression; S = stasis; G = growth
From the text: as §2

ST2249 ovarian PDX tumor = assay: as above; assay type: in vivo; design: key to Response type: CR = complete regression; PR = partial regression; S = stasis; G = growth
From the text: as §2

ST260 ovarian PDX tumor = assay: as above; assay type: in vivo; design: key to Response type: CR = complete regression; PR = partial regression; S = stasis; G = growth
From the text: as §2

ST022 ovarian PDX tumor = assay: as above; assay type: in vivo
From the text: as §2

ST025 ovarian PDX tumor = assay: as above; assay type: in vivo
From the text: as §2

ST1301 ovarian PDX tumor = assay: as above; assay type: in vivo
From the text: as §2

ST1526 ovarian PDX tumor = assay: as above; assay type: in vivo
From the text: as §2

ST1949 ovarian PDX tumor = assay: as above; assay type: in vivo
From the text: as §2

[2] = tested on: ST1986B ovarian PDX tumor; assay: as above; assay type: in vivo
From the text: as §2

ST255 ovarian PDX tumor = assay: as above; assay type: in vivo
From the text: as §2

ST416 ovarian PDX tumor = assay: as above; assay type: in vivo
From the text: as §2

HCT116 [3] = conditions: HCT116 cell line; external data from prior publications; cited from earlier work
Ovarian, primary HGS = conditions: trial 2, 46 multi-center, 8-country study; cited from earlier work
Head and Neck, SCC = conditions: cited from earlier work

EC50 (OVCAR3 cells; BM1 (CHEK2 (Chk2)) siRNA knockdown): 31 nM
EC50 (OVCAR3 cells; BM2 (TRIM28 (KAP1)) siRNA knockdown): > 10000 nM
EC50 (OVCAR3 cells; BM3 (CCNA2 (cyclin A2)) siRNA knockdown): 164 nM
EC50 (OVCAR3 cells; BM3 (CCNE1) siRNA knockdown): > 10000 nM
EC50 (OVCAR3 cells; negative control siRNA in the BM1 (CHEK2 (Chk2)) knockdown experiment): 12 nM
EC50 (OVCAR3 cells; negative control siRNA in the BM2 (TRIM28 (KAP1)) knockdown experiment): 100 nM
EC50 (OVCAR3 cells; negative control siRNA in the BM3 (CCNA2 (cyclin A2)) knockdown experiment): 24 nM
EC50 (OVCAR3 cells; negative control siRNA in the BM3 (CCNE1 (cyclin E1)) knockdown experiment): 25 nM
Compound: COc1cccc(OCCCN)c1-c1cc(Nc2cnc(C#N)cn2)n[nH]1 [prexasertib, 5-(5-(2-(3-aminopropoxy)-6-methoxyphenyl)-1H-pyrazol-3-ylamino)pyrazine-2-carbonitrile]
Actual response status (HCT116 [1]): R (EC50 values of less than or equal to 1 μM were considered to be actual responders)
Actual response status (PANC1): NR (values of greater than 1 μM were considered to be actual non-responders)
Response type (ST1827 ovarian PDX tumor): CR
Best d[T/C], or Regression (ST1827 ovarian PDX tumor; negative = regression): −100%
Response type (ST182B ovarian PDX tumor): CR
Best d[T/C], or Regression (ST182B ovarian PDX tumor; negative = regression): −100%
Response type (ST2067 ovarian PDX tumor): CR
Best d[T/C], or Regression (ST2067 ovarian PDX tumor; negative = regression): −100%
Response type (ST206B ovarian PDX tumor): CR
Best d[T/C], or Regression (ST206B ovarian PDX tumor; negative = regression): −100%
Response type (ST2249 ovarian PDX tumor): CR
Best d[T/C], or Regression (ST2249 ovarian PDX tumor; negative = regression): −100%
Response type (ST260 ovarian PDX tumor): CR
Best d[T/C], or Regression (ST260 ovarian PDX tumor; negative = regression): −100%
Response type (ST022 ovarian PDX tumor): G (G = growth)
Best d[T/C], or Regression (ST022 ovarian PDX tumor; negative = regression): 21.1%
Response type (ST025 ovarian PDX tumor): G (G = growth)
Best d[T/C], or Regression (ST025 ovarian PDX tumor; negative = regression): 48.9%
Response type (ST1301 ovarian PDX tumor): S (S = stasis)
Best d[T/C], or Regression (ST1301 ovarian PDX tumor; negative = regression): 1.2%
Response type (ST1526 ovarian PDX tumor): PR (PR = partial regression)
Best d[T/C], or Regression (ST1526 ovarian PDX tumor; negative = regression): −90%
Response type (ST1949 ovarian PDX tumor): G (G = growth)
Best d[T/C], or Regression (ST1949 ovarian PDX tumor; negative = regression): 56%
Response type [2]: G (G = growth)
Best d[T/C], or Regression ([2]; negative = regression): 35.1%
Response type (ST255 ovarian PDX tumor): S (S = stasis)
Best d[T/C], or Regression (ST255 ovarian PDX tumor; negative = regression): −8.9%
Response type (ST416 ovarian PDX tumor): S (S = stasis)
Best d[T/C], or Regression (ST416 ovarian PDX tumor; negative = regression): −9%
EC50 (HCT116 [3]): 100 nM
ORR in trials (Ovarian, primary HGS): 19% (trial 2^)
ORR in trials (Head and Neck, SCC): 5%
